According to ChEMBL document CHEMBL3580563, “Kaempulchraols A-H, Diterpenoids from the Rhizomes of Kaempferia pulchra Collected in Myanmar” (J Nat Prod, 2015):
pIC50: −log10 of the molar value.

Key:
Format in all cases: functional, cell-based
PSN1 = test: Antiproliferative activity against human PSN1 cells after 72 hrs by WST8 assay; conditions: PSN1, 72 h
A549 = test: Antiproliferative activity against human A549 cells after 72 hrs by WST8 assay; conditions: A549, 72 h
[1] = Antiproliferative activity against human PANC1 cells after 72 hrs by WST8 assay; conditions: PANC-1, 72 h
[2] = Antiproliferative activity against human TIG3 cells after 72 hrs by WST8 assay; conditions: TIG-3, 72 h
MDA-MB-231 = test: Antiproliferative activity against human MDA-MB-231 cells after 72 hrs by WST8 assay; conditions: MDA-MB-231, 72 h

Compound | pIC50 (PSN1) | pIC50 (A549) | pIC50 [1] | pIC50 [2] | pIC50 (MDA-MB-231)
C=C[C@]1(C)C=C2CC[C@H]3C(C)(C)[C@H](O)C[C@H](O)[C@]3(C)[C@H]2CC1 | 4.91 |  |  |  | 
O=c1[nH]cc(F)c(=O)[nH]1 [FLUOROURACIL] | 5.36 | 5.55 | 5.43 | 5.08 | 5.28
